Consider 1 molecule from patent publication US6962808B2, “Method and apparatus for measurement of the effect of test compounds on signal transduction at the level of biological receptors” (The University of Louisville Research Foundation, priority 1998, dated 2005).

This test concerns the target T1, human estrogen receptor binding to ERE (Homo sapiens, UniProt P03372).
T1 construct: ubiquitin (fusion partner); made in house; host or cells: Saccharomyces cerevisiae strain AF103, YEpE10 plasmid, CUP1 promoter
The experiment in a line: Evanescent fiber optic sensor, ERE fiber, binding of Cy5-tagged hER to the estrogen response element. The format is biochemical. The protocol:
This solution comprised said calibration standard of component 6a. […] This receptor preparation was used as the calibration solution. Immediately after preparation it was pipetted in 135 μl aliquots into microcentrifuge tubes, snap frozen and stored at −80° C. They were not thawed again until they were used with the fiber sensor.

T1 sequence (P03372 whole entry, the tested form may be a part): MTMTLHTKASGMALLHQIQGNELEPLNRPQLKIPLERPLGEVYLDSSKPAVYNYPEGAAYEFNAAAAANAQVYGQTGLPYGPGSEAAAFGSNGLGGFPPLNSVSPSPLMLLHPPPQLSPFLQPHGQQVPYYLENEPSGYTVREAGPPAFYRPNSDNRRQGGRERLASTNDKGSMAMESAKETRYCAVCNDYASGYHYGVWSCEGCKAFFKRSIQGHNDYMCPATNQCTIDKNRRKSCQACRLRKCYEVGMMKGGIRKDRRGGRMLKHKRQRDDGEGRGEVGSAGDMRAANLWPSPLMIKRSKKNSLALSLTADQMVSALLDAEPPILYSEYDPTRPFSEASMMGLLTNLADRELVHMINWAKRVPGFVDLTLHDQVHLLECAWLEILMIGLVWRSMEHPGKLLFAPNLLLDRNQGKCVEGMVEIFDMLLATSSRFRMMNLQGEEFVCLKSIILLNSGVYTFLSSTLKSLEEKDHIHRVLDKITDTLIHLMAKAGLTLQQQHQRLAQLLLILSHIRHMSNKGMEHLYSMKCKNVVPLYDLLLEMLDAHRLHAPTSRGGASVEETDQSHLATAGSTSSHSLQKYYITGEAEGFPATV

Turning to `C[C@H]1CCCC(=O)CCC/C=C/c2cc(O)cc(O)c2C(=O)O1` [zearalenone], the “Response of ERE fiber to hER and 10^−6 M compound (control = 3.51)” value (S/C value, control = 3.51) was determined as 5.01. For the same molecule, the “effect on binding of hER to the ERE fiber” value (in words, 10^−6 M compound) is listed as “increase binding to the ERE more than do the weak biological estrogens”.
